Laboratory results taken from patent US7432045B2 (priority 2003, dated 2008).
pEC50, pIC50: −log10 of the molar value. Where two headings read alike, the source gives them in different places. Peptide text beside a SMILES is read from it.

Experiments:
[1] = test system: HSV-1 KOS mutant hrR3
[2] = test system: hrR3 virions; test: Inactivation of virions in solution; type: cell-based, HSV-1; settings: 37° C.
Description: Inactivation of virions: To assess the ability of peptides to inactivate virions, 3-4×10^6 pfu/mL of virus was mixed on ice with peptide in serum-free DMEM and incubated for 1 h at 4 or 37° C. Aliquots (10 μL) were diluted 1000-fold into peptide-free serum-supplemented DMEM at 23° C. and 50 μL aliquots were assayed in triplicate for infectivity in Vero cell cultures (dilution assay). Alternatively, 10 μL aliquots were diluted into 1 mL of ice-cold peptide-free serum-supplemented DMEM and the virus was pelleted as described above (centrifugation assay). Viral pellets were then resuspended in 250 μL serum-supplemented DMEM and 50 μL aliquots were assayed in triplicate for infectivity in Vero cell cultures.
Some of the virus diluted without the addition of NaCl was pelleted immediately (Control), while the rest of the diluted virus was stored at 4° C. and pelleted 19 h later. The virus was pelleted and assayed for infectivity as described in Example 1.

[3] = target: T1, trypsin (Sus scrofa, UniProt P00761); test: Trypsinization of peptides; settings: 0.005 or 0.01% trypsin, 1 h at 37° C.
T1 construct: purchased BioWhittaker 17-160E
T1 sequence (P00761 9-231): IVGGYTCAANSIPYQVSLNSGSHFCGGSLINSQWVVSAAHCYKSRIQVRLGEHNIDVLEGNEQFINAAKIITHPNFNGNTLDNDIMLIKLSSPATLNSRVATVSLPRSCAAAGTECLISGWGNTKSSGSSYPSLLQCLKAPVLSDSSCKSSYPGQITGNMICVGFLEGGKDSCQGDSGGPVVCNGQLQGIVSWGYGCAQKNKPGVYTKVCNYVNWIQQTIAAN
Description: Trypsinization of peptides: Peptides dissolved in serum-free DMEM were exposed to 0.005 or 0.01% trypsin for 1 h at 37° C. The trypsin was then inactivated with a 1.3-fold molar excess of soybean trypsin inhibitor and the ability of the peptides to inactivate virions was tested as described above (centrifugation assay). In controls, trypsin was inactivated before it was added to the peptides.
In Panel B, peptides in serum-free medium were pre-treated with active trypsin (open bars) or inactivated trypsin (shaded bars) for 1 h at 37° C. before they were added to virions for 1 h at 37° C. (see Example 1). The treated virions were then pelleted and resuspended in serum-supplemented medium and assayed for infectivity without further trypsinization. The peptide concentrations were as high or higher than those used in Panel A: […] TAT-C, 50 μM bKLA, 200 μM EB and bHOM-9. Trypsin concentrations used in both Panels A and B, were 0.005% (for bKLA, EB and bHOM-9) or 0.01% (for TAT-C and the ‘no peptide’ control).

[4] = test system: H5 Avian Influenza virus; settings: dog
[5] = test system: HSV-1 KOS; test: Plaque reduction assay; type: cell-based
Description: Cell culture and virus: The procedures for growing Vero cells and preparing high titer stocks of HSV-1 KOS as described in Grau et al., Invest. Ophthal. and Vis. Sci. 30: 2474 (1989) were utilized. Vero cells were maintained in carbonate-buffered DMEM supplemented with 5% calf serum and 5% fetal bovine serum (regular medium). For some studies, cells were switched to serum-free DMEM buffered with 25 mM HEPES (pH 7.4) and allowed to adapt to that medium for 30 min prior to experimental treatments. Vero cells were seeded into wells (0.28 cm^2) of microtiter plates either at 3.5×10^4 cells/well for use 1 day later (8×10^4 cells/well) or at 1×10^4 cells/well for use 3 days later (2×10^5 cells/well).
Plaque reduction assay: Confluent Vero cell cultures in microtiter plates were infected for 1 hour at 37° C. in 40 μL of medium. Except where indicated, peptide treatments in 40 μL of medium lasted from 1 hour before through 1 hour after infection. At the end of the adsorption period, the cultures were re-fed with 100 μL of regular medium. Plaque formation was scored 2 days later and the number of plaques scored per well was normalized to the number counted in the absence of peptide. Using an ocular micrometer, plaque size (π/2×L×S) was determined by measuring the largest plaque diameter (L) and the diameter at a 90° angle to that (S). The size of each of the first 40 scored plaques was measured except when a plaque included less than 10 rounded cells or touched the side of the well.

[6] = test system: Vero cells
[7] = test system: hrR3; test: Virucidal assay; type: cell-based, HSV-1
Description: […] The treated virus was diluted 200-fold with serum-supplemented DMEM and assayed for infectivity approximately 1 hour later in microtiter wells seeded with Vero cells (3.5×10^4 cells/well) 1 d earlier. Forty or 100 microliter volumes of diluted virus were adsorbed for 1 or 2 h at 37° C. and lacZ^+ cells were scored 8 hours later. In some experiments, aliquots of diluted virus were first dialyzed (Spectra/Por; MWCO 12-14,000) overnight at 4° C. against a 60-fold excess volume of Hepes-buffered serum-supplemented DMEM or forced by syringe through 0.22 μm membranes (Millex-GV; Millipore) before the remaining infectious virus was assayed.

[8] = test system: hrR3; settings: read-out: IC50, infection in presence of peptide with peptide treated virions
[9] = test system: MDCK cells
[10] = test system: HSV-1 KOS mutant hrR3; settings: read-out: IC50 (lacZ+ cells)
[11] = in vitro; settings: African green monkey
[12] = MTS assay; settings: human, CEMx174 cells (T-B hybridoma)
[13] = test system: HSV-1 KOS; settings: depending on concentration

In the case of `N=C(N)NCCC[C@H](NC(=O)CN)C(=O)N[C@@H](CCCCN)C(=O)N[C@@H](CCCCN)C(=O)N[C@@H](CCCNC(=N)N)C(=O)N[C@@H](CCCNC(=N)N)C(=O)N[C@@H](CCC(N)=O)C(=O)N[C@@H](CCCNC(=N)N)C(=O)N[C@@H](CCCNC(=N)N)C(=O)N[C@@H](CCCNC(=N)N)C(=O)N[C@@H](CS)C(=O)O` [TAT-C, NH2-GRKKRRQRRRC-COOH], the “inhibitory effect after 1 h at 32° C.” value ([1]; 10 or 100 μM peptide) was “about 90%”, the “virus internalized after cultures were rinsed and shifted to 37° C.” value ([1]; 10 or 100 μM peptide) was 25-33% and the “reversibility of the inhibitory effect after removal of peptide” value ([1]; n50,51TAT-C 10 μM, TAT-C 10 or 100 μM) was “largely irreversible”. For the same compound, the pIC50 ([2]; dilution or centrifugation, read-out: inactivation of virions IC50) was roughly 4.12, the pIC50 ([2]; read-out: Inactivation of Virions 37° C. IC50) was 4.00 and the “effect of trypsinization of the peptide on its antiviral activity” value [3] was “completely abolished their antiviral activity”.
With `CC(C)C[C@H](NC(=O)[C@H](C)NC(=O)[C@H](CC(C)C)NC(=O)[C@H](CC(C)C)NC(=O)[C@@H](NC(=O)[C@H](C)NC(=O)[C@@H]1CCCN1C(=O)[C@H](CC(C)C)NC(=O)[C@H](CC(C)C)NC(=O)[C@H](C)NC(=O)[C@@H](NC(=O)[C@H](C)NC(=O)[C@H](C)NC(=O)[C@H](CCCCN)NC(=O)[C@H](CCCCN)NC(=O)[C@H](CCCNC(=N)N)NC(=O)[C@@H](N)CCCNC(=N)N)C(C)C)C(C)C)C(=O)N[C@@H](CC(C)C)C(=O)N[C@@H](C)C(=O)N1CCC[C@H]1C(=O)O` [EB] (H-RRKKAAVALLPAVLLALLAP-OH) the pIC50 [4] was 6.30, the “reduction of mean plaque size” value ([5]; 25 μM added 1 hour post-infection) was 70% and the mean plaque size ([5]; 25 μM added 1 hour post-infection, untreated 66,000±6200) was 6900±2600 μm^2. For the same compound, the “combined mean plaque size after transient treatments” value ([5]; 6 and 12 μM, up to 1 hour post-infection) was 68,000±11,000 μm^2, the “fold lower concentration blocking infections compared to EBX” value ([5]; absence of serum, FIG. 1B) was 100 fold and the pIC50 ([5]; absence of serum, FIG. 1B, read-out: antiviral IC50 (plaque formation)) was 6.15. For the same compound, the “fold lower concentration blocking infections compared to EBX” value ([5]; presence of serum (FIG. 1A)) was 10 fold, the pIC50 ([5]; present continuously after infection, read-out: inhibition of plaque expansion IC50) was 4.92 and the pIC50 ([5]; present continuously starting 1 hour post-infection, read-out: plaque number IC50) was 4.62. The pIC50 ([5]; present during infection and 1 hour pre- and post-infection, read-out: plaque number IC50) was 5.26, the “concentration at which cytotoxic effects were seen first” value [6] was 200 µM and the “cytotoxic effects (trypan blue) in cellular resistance experiments” value [6] was “No cytotoxic effects”. The “reversibility of virion inactivation by overnight dialysis” value [7] was “irreversibly inactivated”, the pIC50 ([7]; 4° C., read-out: Virucidal Activity 4° C. IC50) was 4.05 and the pIC50 ([7]; first experiment, FIG. 8A, read-out: inhibition of infectivity of virions IC50) was 4.36. It also gave a pIC50 ([7]; second experiment, FIG. 8B, read-out: inhibition of infectivity of virions IC50) of 4.16, a pIC50 ([8]; cells pretreated with peptide) of 6.05 and a pIC50 ([8]; non-pretreated cells) of 5.77. For the same compound, the “effect of trypsinization of the peptide on its antiviral activity” value [3] was “completely abolished their antiviral activity”, the “cytotoxic effects (trypan blue staining)” value [9] was “No cytotoxic effects” and the pIC50 ([10]; virus input 19 pfu/well) was 6.18. The pIC50 ([10]; virus input 210 pfu/well) was 5.92, the pIC50 ([10]; virus input 5700 pfu/well) was 4.96 and the pIC50 [11] was 4.17. The pEC50 [12] was 4.30 and the “reduction of virus yields” value [13] was “up to eight orders of magnitude”.
